Source: article PMC9313812, “The Pseudo‐Natural Product Rhonin Targets RHOGDI” (Angewandte Chemie (International Ed. in English), 2022)
Read-outs that look alike come from different tables or passages of the source.

Key:
[1] = system: C3H10T1/2 cells; test: Osteoblast differentiation in presence of low or high SAG; assay type: cell-based, mouse; settings: low and high concentration of SMO agonist SAG
Method: cilia were stained with an antibody against acetylated tubulin. SMO was marked with an anti-SMO antibody and DAPI was used to stain the nuclei. For quantification of cilia, at least 100 cilia per condition and biological replicate were analyzed for the intensity of anti-acetylated tubulin antibody staining. The results of one representative biological replicate are shown and each data point represents the intensity value of one single cilium. Statistical significance was evaluated using an unpaired t-test with a confidence interval of 95 % (p ≤ n.s.). (d and e) Influence Vismodegib (d) or GANT61 (e) on osteoblast diffe rentation of C3H10T1/2 cells in presence of low (0.1 µM) or high (1 µM) concentration of the SMO agonist SAG. Data are mean values of three independent biological replicates (n= 3) ± SD. (f) Fluorescent polarization measurements were performed by titrating 1 μM TAMRA-GDP-bound RAC1 with increasing […]
µM Rhonin. Data are mean values (n = 3) ± SD. (g) Structure of the lysine-reactive probe […]
(§1) (1 picture or pasted object on this page, not shown here)

[2] = biological target: T1, NIH/3T3 lysate proteins (Mus musculus, UniProt Q99PT1); test: Affinity chromatography (pulldown) with immobilized probes, HRMS label-free quantification and immunoblotting; assay type: binding; settings: fold excess enriched with active probe 8 vs inactive probe 9
T1 construct: endogenous in cells; host or cells: NIH/3T3
Method: (§2) Supplementary Table S8. List of proteins enriched by the active probe 8 as identified by means of affinity chromatography. […]
(§3) on NHS ester magnetic beads. NIH/3T3 lysate was passed on to the probes and target protein identification was performed employing HRMS analysis as described in the methods section.
(§4) The ratios indicate the fold excess of protein enriched with the active probe 8 as compared to […]
(§5) Apart from filamin –B and –C and RHOGDI1, all enriched proteins were known frequent binders in pulldown assays.
(§6) Protein name Gene symbol Ratio
(§7) RHO GDP-dissociation inhibitor 1 Arhgdia 33
(§8) Guanine nucleotide -binding protein subunit beta -2-like
(§9) 1;Guanine nucleotide -binding protein subunit beta -2-like 1, N- Gnb2l1 6 […]
(§10) ATPase inhibitor, mitochondrial Atpif1 4
(§11) Hsc70-interacting protein St13 4
(§12) Tropomyosin alpha -4 chain Tpm4 4
(§13) Ribosome-recycling factor, mitochondrial Mrrf 3
(§14) (1 picture or pasted object on this page, not shown here) […]
(§15) intensities was performed by densitometry of scanned signals with the aid of image studio software (Version 4.0.21, LI-COR Biosciences, ©2014). […]
(§16) Cell lysate preparation for chemical proteomics
(§17) NIH/3T3 cells were grown to 90-95% confluence and were then detached using cell dissociation solution for 5 min at 37 °C and 5% CO2. Cells were suspended in cell culture medium and pelleted by centrifugation at 250 x g, 5 min at 4 °C. Cell pellets were then washed thrice with ice-cold PBS and lysed in lysis buffer containing 50 mM PIPES, 50 mM NaCl, 5 mM MgCl2, 5 mM EGTA, 0.1 % NP40, 0.1 % Triton X-100, 0.1 % Tween®20, with freshly added 1 mM DTT, EDTA-free protease inhibitors (Complete EDTA-free, Roche) and phosphatase inhibitors (PhosphoSTOP, Roche). To assure complete cell lysis, the suspension was passed through […] cannula 10 times each and incubated on ice for 40 min with intermittent vortexing every five minutes until a homogeneous mixture was obtained.
(§18) The resulting homogenate was centrifuged at 18,000 x g for 30 min at 4 °C and the supernatant was subsequently snap frozen in liquid nitrogen and stored at -80 °C. Total protein content was determined by DC protein assay (Bio-Rad, Germany).
(§19) Affinity chromatography enrichment of compound-bound proteins
(§20) 25 µL N-hydroxysuccinimide magnetic beads (GE Healthcare) were activated with 500 µL 1 mM HCl for 1 min. HCl was replaced by 500 µL coupling buffer (0.15 M triethanolamine, […]
(§21) incubated for 2 h at room temperature with overhead rotation. The residual active groups of N-hydroxysuccinimide magnetic were quenched by alternating incubation with 500 µL block A buffer (0.5 M ethanolamine, 0.5 M NaCl, pH 8.3) and block B buffer (0.1 M sodium acetate, 0.5 M NaCl, pH 4.0) for 5 min three times each. For protein binding, the magnetic beads were equilibrated with 500 µL lysis buffer followed by incubation with 500 µL lysate (protein concentration: 2 mg/mL) 2 h at 4 °C with overhead rotation. In order to wash out non-specifically bound proteins, the beads were first washed with 500 µL lysis buffer containing 25 mM MgCl2 followed by three times washing with 500 µL PBS. Tryptic digestion of bead-bound proteins was carried out in two stages. First, bound proteins were reduced by incubating the beads with 50 µL reducing buffer (1 mM DTT, 8 M urea in 50 mM Tris (pH 7.5)) at 30 °C for 30 min with shaking. Later, the reduced proteins were alkylated by addition of 5.5 µL alkylating solution (1 mM DTT, 50 mM chloroacetamide, 8 M urea in 50 mM Tris pH 7.5) and further incubation in the dark at 30 °C for 30 min while shaking at 350 rpm. The reduced and alkylated proteins were digested by adding 1 µg LysC at 37 °C for 1 h while shaking at 350 rpm. The supernatant was transferred to a new tube and the beads were further incubated with 50 mM Tris-HCl (pH 7.5) containing 1 µg trypsin at 37 °C for 1 h while shaking at 350 rpm.
(§22) Both supernatants were combined together and further digested by adding 2 µg trypsin for 16 h at 37 °C with continuous shaking. The enzymatic digestion was stopped by addition of 2 µL […]

[3] = system: NIH/3T3 lysate proteins; test: as above; assay type: binding
Method: as §2, §3, §4, §5, §6, §7, §8, §9, §10, §11, §12, §13, §14, §15, §16, §17, §18, §19, §20, §21, §22

[4] = biological target: T2, RHOGDI1 (Homo sapiens, UniProt P52565); test: Fluorescence polarization binding of probe 10; settings: fluorescence polarization; read-out: KD (RHOGDI1Δ15)
T2 construct: GST; made in house; host or cells: E. coli (XL1-Blue / BL21)
Method: (§23) Fluorescence polarization
(§24) The binding of probe 10 to RHOGDI1-3 was confirmed by fluorescence polarization experiments. RHOGDI1 was titrated against 0.5 µM of the fluorescent Rhonin derivative 10 in buffer containing 20 mM Hepes, pH 7.4, 150 mM NaCl, 5 mM MgCl2, 3 mM DTT and incubated for 1 h. The change in fluorescence polarization was monitored at an excitation / emission wavelengths of 535 nm and 593 nm, respectively. […]
(§25) Protein expression and purification
(§26) RHOGDI1 delta15, RHOGDI1 delta25, RHOGDI1-3 were produced in E. coli (XL1-Blue) as a GST recombinant protein as described previously.[9] In summary, protein were expressed in E.coli BL21 upon addition of IPTG overnight. Cell were collected and lysed in a lysis buffer, containing 30 mM Tris-NaOH pH 7.4, 150 mM NaCl, 1 mM DTT, and 5 mM MgCl2. Cells were further lysed using sonication. After centrifugation (20 min at 20,000 g) of lysate, the clear supernatant was used for purification in an ÄKTAprime system connected to a GSH column […]
(§27) Insect cell purification system was used for expression and purification of prenylated proteins based on an established protocol.[9] Sf9/or TNAO38 insect cells (Sf9 used only for virus generation and amplification) were grown to the level of 1.5×10^6 cells/ml before they were transduced with Baculoviruses encoding genes related to the RHO GTPases. Cells were resuspended in lysis buffer, containing 20 mM HEPES-NaOH pH 7.4, 150 mM NaCl, 2 mM β-mercaptoethanol, 5 mM MgCl2, 0.1 mM GDP, 10 mM imidazole and the optimized detergents including 1% CHAPS and 0.5% sodium cholate .[9] Cells were lysed by s onication in ice. After
T2 sequence (P52565 16-204): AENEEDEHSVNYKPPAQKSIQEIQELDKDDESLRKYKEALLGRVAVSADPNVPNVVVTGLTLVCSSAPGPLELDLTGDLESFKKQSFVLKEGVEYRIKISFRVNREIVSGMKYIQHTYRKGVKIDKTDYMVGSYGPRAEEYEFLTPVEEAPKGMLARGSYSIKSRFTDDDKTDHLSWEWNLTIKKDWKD

[5] = biological target: T3, RHOGDI1 (Homo sapiens, UniProt P52565); test: Fluorescence polarization binding of probe 10; settings: fluorescence polarization; read-out: KD (RHOGDI1Δ25)
T3 construct: GST; made in house; host or cells: E. coli (XL1-Blue / BL21)
Method: as §23, §24, §25, §26, §27
T3 sequence (P52565 26-204): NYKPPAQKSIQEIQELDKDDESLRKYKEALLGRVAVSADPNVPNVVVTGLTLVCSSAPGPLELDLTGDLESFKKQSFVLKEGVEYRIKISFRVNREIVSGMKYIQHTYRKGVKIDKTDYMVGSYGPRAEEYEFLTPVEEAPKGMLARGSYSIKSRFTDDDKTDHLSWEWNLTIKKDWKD

[6] = biological target: RHOGDI1 (Homo sapiens, UniProt P52565); test: Fluorescence polarization binding of probe 10; settings: range from Figure 4e; read-out: KD, measured affinity between probe 10 and RHOGDI1
Method: as §23, §24, §25, §26, §27
Target sequence in this assay (P52565 2-204): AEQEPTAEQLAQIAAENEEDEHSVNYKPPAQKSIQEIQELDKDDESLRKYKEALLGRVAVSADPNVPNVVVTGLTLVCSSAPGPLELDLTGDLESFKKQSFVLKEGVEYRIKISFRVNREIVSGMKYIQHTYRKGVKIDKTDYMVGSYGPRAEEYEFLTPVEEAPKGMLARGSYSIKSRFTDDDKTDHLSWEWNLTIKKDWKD

[7] = biological target: T4, RHOGDI2 (Homo sapiens, UniProt P52566); test: Fluorescence polarization binding of probe 10
T4 construct: GST; made in house; host or cells: E. coli (XL1-Blue / BL21)
Method: as §23, §24, §25, §26, §27

[8] = biological target: T5, RHOGDI3 (Homo sapiens, UniProt Q99819); test: Fluorescence polarization binding of probe 10
T5 construct: GST; made in house; host or cells: E. coli (XL1-Blue / BL21)
Method: as §23, §24, §25, §26, §27

[9] = biological target: T6, PDEδ (Homo sapiens, UniProt O43924); test: Fluorescence polarization, direct binding of probe 10; settings: 10 nM probe 10, titration of PDEδ
T6 construct: GST (N); made in house; host or cells: E. coli Rosetta 2
Method: RHOGDI1 displaced liposome -bound RAC1 from the surface of L1 chip with a koff of 0.016 […]
bound RAC1. Calculated rate constants by mono-exponential fitting of RU decays were 0.02 and 0.032 s-1 for RHOGDI1-mediated RAC1 displacement from the liposomes in the presence of 7a and 7d, respectively. (d) Competition-based fluorescence polarization experiments were performed by titration of 7a against 10 nM fluorescein-labelled atorvastatin and GST-PDEδ.
(e) Fluorescence polarization experiment using 10 nM probe 10 and titration of PDEδ.
as §1
Label-free quantification (LFQ) intensities were logarithmized (log2) and proteins, which were not three times quantified in at least one of the groups, were filtered off. […]
as §23
The binding of probe 10 to RHOGDI1-3 was confirmed by fluorescence polarization experiments. […] The change in fluorescence polarization was monitored at an excitation / emission wavelengths of 535 nm and 593 nm, respectively. […]
To determine the effect of 7a on the binding of RHOGDI1 to non-prenylated RAC1-GDP, fluorescence polarization measurements were performed by titrating 1 µM TAMRA-GDP-bound RAC1 with increasing concentrations of RHOGDI1 in the presence and absence of 50 µM 7a in buffer containing 30 mM Tris-HCl, pH 7.5, 150 mM NaCl, 5 mM MgCl2, 1% DMSO. […]

[10] = fold excess enriched with active probe 8 vs inactive probe 9

T4 sequence (P52566 whole entry, species assumed): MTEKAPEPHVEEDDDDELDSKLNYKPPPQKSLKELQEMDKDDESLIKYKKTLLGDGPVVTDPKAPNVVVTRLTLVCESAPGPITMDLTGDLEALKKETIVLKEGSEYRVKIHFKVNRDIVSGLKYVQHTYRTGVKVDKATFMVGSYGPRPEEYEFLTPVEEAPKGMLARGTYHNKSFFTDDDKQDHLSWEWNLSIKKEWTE
T5 sequence (Q99819 whole entry, species assumed): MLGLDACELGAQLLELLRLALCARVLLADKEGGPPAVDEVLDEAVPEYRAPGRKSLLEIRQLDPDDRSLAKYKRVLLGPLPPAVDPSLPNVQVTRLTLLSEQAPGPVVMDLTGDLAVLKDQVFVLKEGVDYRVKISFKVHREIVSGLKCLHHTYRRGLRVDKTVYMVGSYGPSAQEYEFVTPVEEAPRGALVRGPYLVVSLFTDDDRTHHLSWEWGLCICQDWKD
T6 sequence (O43924 whole entry): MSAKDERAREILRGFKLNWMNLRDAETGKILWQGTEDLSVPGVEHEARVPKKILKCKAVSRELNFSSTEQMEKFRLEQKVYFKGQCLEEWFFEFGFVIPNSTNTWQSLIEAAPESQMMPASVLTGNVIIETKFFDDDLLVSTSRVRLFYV
T1 sequence (Q99PT1 2-204): as the sequence (P52565 2-204) above, with V70I, G73R, S80T, V161M, S175N, D200E counted along it

CS(=O)(=O)c1ccc(C(=O)Nc2ccc(Cl)c(-c3ccccn3)c2)c(Cl)c1 [Vismodegib]
Potency in osteogenesis in presence of 0.1 μM vs 1 μM SAG (in words) [1]: decreased potency

COC(=O)C1(C(CC(=O)c2ccccc2)c2ccc(C(=O)NCCOCCOCCN)cc2)N=C(c2ccc(Br)cc2)C2C(=O)N(C)C(=O)C21 (centres unmarked) [compound 8]
Ratio, RHO GDP-dissociation inhibitor 1 (Arhgdia) [2]: 33 | Ratio, 60S ribosomal protein L32 (Rpl32) [3, 10]: 9 | Ratio, ATPase inhibitor, mitochondrial (Atpif1) [3, 10]: 4 | Ratio, Filamin-B (Flnb) [3, 10]: 36 | Ratio, Filamin-C (Flnc) [3, 10]: 27 | Ratio, Guanine nucleotide-binding protein subunit beta-2-like 1 (Gnb2l1) [3, 10]: 6 | Ratio, Hsc70-interacting protein (St13) [3, 10]: 4 | Ratio, Ribosome-recycling factor, mitochondrial (Mrrf) [3, 10]: 3 | Ratio, Tropomyosin alpha-4 chain (Tpm4) [3, 10]: 4 | Enrichment of proteins by probe, immunoblotting after pulldown (in words) ([3]; probe 8 compared with control probe 9, NIH/3T3 lysates): selective enrichment of RHOGDI1

COC(=O)C1(C(CC(=O)c2ccccc2)c2ccc(C(=O)NCCOCCOCCNC(=O)CCc3ccc4n3[B-](F)(F)[N+]3=C(c5ccc[nH]5)C=CC3=C4)cc2)N=C(c2ccc(Br)cc2)C2C(=O)N(C)C(=O)C21 (centres unmarked) [compound 10]
Kd [4]: 8.51 µM | Kd [5]: 3.09 µM | Kd [6]: 3.1 to 8.5 µM | Kd [7]: 9.08 µM | Kd [8]: 11.5 µM | Binding of probe to PDEδ (in words) [9]: binds to PDEδ only at higher concentrations
